Phosphorus removed data for one compound are collected here from US20020064511A1, “Water-soluble polymers for the reduction of dietary phosphate or oxalate absorption” (priority 1996, published 2002).

A short description of this assay: Complexation of phosphate in NaH2PO4 solution, Centricon 30 filtrate phosphorus by ICP. In kind it is binding.

The structures appear in SMILES notation.

Procedure: In each of four tubes, 0.54 mL of this solution (0.19 mmol of monomer units) were mixed with 10 mL of 0.0207 M NaH2PO4 and appropriate amounts of HCl and NaOH to make solutions of pH 3, pH 4.5, pH 6, and pH 7.5. Tubes with the same pH were also prepared with 10 mL of 0.0207 M NaH2PO4and 0.50 mL of 1.5 M CaCO, (0.749 mmol). Control tubes were also prepared with the sodium phosphate solution and the adjustment of pH. All tubes were diluted to 12 mL with water. The tubes were agitated for one hour. The solutions were then placed in separate Centricon™ 30 molecular weight cutoff tubes and centrifuged for 30 minutes. The filtrate collected was analyzed for phosphorus by inductively coupled plasma spectroscopy.
In each of four tubes, 0.67 mL of this solution (0.18 mmol of monomer units) were mixed with 10 mL of 0.0207 M NaH2PO4 and appropriate amounts of HCl and NaOH to make solutions of pH 3, pH 4.5, pH 6, and pH 7.5. Tubes with the same pH were also prepared with 10 mL of 0.0207 M NaH2PO4 and 0.50 mL of 1.5 M CaCO3 (0.749 mmol). Control tubes were also prepared with the sodium phosphate solution and the adjustment of pH. All tubes were diluted to 12 mL with water. The tubes were agitated for one hour. The solutions were then placed in separate Centricon™ 30 molecular weight cutoff tubes and centrifuged for 30 minutes. The filtrate collected was analyzed for phosphorus by inductively coupled plasma spectroscopy.

`O=C([O-])[O-].[Ca+2]` [calcium carbonate]: the phosphorus removed by setting is: (pH 3, 10 mL 0.0207 M NaH2PO4, one hour) 16%; (pH 4.5, 10 mL 0.0207 M NaH2PO4, one hour) 13%; (pH 6, 10 mL 0.0207 M NaH2PO4, one hour) 9%; (pH 7.5, 10 mL 0.0207 M NaH2PO4, one hour) 7%.
